Test results as given in paper doi:10.1101/2022.12.19.520966v1 (biorxiv, 2022).
Where a chain is given by its changes, count along the chain named. pEC50: −log10 of the molar value.

Tests used:
Experiment in all cases: HTRF IP1 accumulation
Type in all cases: cell-based
[1] = molecular target: T1, T1R2/T1R3 (human sweet taste receptor) (Homo sapiens, UniProt Q7RTX0+Q8TE23); conditions: agonist; Galpha16gus44 co-transfected; 0.05 M LiCl, 5 min exposure; unreliable
T1 sequence (Q8TE23 20-839): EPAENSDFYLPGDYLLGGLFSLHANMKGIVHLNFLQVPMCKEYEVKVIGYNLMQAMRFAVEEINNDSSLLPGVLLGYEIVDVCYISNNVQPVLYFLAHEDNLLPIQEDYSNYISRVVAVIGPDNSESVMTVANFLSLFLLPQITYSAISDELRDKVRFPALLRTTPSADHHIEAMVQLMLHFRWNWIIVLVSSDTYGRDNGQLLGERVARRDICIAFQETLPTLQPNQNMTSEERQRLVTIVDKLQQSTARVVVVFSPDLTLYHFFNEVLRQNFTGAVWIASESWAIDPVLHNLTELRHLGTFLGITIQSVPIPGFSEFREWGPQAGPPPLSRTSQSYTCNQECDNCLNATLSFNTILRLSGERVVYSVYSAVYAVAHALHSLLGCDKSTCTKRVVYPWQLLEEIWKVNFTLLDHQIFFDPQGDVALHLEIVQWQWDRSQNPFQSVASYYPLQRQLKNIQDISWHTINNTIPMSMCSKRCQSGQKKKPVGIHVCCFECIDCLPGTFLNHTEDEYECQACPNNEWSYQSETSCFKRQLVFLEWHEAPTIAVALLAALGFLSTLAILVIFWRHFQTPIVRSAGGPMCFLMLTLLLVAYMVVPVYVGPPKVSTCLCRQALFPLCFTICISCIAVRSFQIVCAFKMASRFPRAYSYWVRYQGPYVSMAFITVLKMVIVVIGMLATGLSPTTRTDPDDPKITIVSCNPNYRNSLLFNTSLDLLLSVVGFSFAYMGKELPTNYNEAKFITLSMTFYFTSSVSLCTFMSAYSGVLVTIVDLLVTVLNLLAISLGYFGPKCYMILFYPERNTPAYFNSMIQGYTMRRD
T1 sequence (Q7RTX0 21-852): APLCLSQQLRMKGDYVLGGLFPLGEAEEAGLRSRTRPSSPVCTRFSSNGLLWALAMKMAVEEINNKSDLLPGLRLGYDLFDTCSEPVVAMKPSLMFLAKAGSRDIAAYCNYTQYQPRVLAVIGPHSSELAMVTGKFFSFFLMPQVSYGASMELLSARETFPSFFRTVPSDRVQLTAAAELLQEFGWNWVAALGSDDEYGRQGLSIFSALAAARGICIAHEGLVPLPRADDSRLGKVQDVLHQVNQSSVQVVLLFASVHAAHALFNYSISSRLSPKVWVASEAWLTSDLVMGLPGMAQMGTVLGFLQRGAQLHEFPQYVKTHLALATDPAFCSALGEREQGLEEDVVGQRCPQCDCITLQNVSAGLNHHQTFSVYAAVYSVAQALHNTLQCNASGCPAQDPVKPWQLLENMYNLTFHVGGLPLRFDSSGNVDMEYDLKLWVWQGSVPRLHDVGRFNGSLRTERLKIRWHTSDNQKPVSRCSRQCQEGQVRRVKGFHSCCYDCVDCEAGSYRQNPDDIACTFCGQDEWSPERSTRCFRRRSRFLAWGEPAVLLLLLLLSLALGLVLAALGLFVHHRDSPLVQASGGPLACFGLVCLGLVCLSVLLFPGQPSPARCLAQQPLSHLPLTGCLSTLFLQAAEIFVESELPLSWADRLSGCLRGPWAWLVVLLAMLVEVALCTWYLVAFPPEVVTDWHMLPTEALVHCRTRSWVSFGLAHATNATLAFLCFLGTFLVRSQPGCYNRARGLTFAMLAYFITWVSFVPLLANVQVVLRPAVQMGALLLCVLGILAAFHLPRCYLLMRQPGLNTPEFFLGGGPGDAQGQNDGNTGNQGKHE

[2] = molecular target: T1, T1R2/T1R3 (human sweet taste receptor); conditions: agonist; Galpha16gus44 co-transfected; 0.05 M LiCl, 5 min exposure
[3] = molecular target: T2, T1R2/T1R3 (human sweet taste receptor) (Homo sapiens, UniProt Q7RTX0+Q8TE23, Q8TE23:R317G/Q8TE23:I486V); conditions: agonist; Galpha16gus44 co-transfected; 0.05 M LiCl, 5 min exposure
T2 sequence (Q8TE23 20-839 R317G/I486V): T1 sequence (Q8TE23 20-839) with R298G, I467V
T2 sequence (Q7RTX0 21-852): T1 sequence (Q7RTX0 21-852)

Row | Emax [1] | pEC50 [2] | pEC50 [3] | SMILES
1 | 100% | – | – | OC[C@H]1OC(O)[C@H](O)[C@@H](O)[C@@H]1O (stereo partly drawn) [D-glucose]
2 | – | 2.70 | ~1.82 | OC[C@@H]1OC(O)[C@@H](O)[C@H](O)[C@H]1O (stereo partly drawn) [L-glucose]
